The source made the active and inactive calls. No cut-off for these calls is given here.
What was measured:
Type in all cases: functional, cell-based
[1] = test system: Caco-2; experiment: Cytotoxicity against human Caco-2 cells at 100 uM after 72 hrs by MTT assay
[2] = test system: Caco-2; experiment: Cytotoxicity against human Caco-2 cells at 0.1 to 100 uM after 72 hrs by MTT assay
[3] = test system: MIA PaCa-2; experiment: Cytotoxicity against human MIAPaCa2 cells at 0.1 to 100 uM after 72 hrs by MTT assay
[4] = test system: HT-29; experiment: Cytotoxicity against human HT-29 cells at 0.1 to 100 uM after 72 hrs by MTT assay
[5] = test system: HeLa; experiment: Cytotoxicity against human HeLa cells at 0.1 to 100 uM after 72 hrs by MTT assay
[6] = test system: HEp-2; experiment: Cytotoxicity against human Hep2 cells at 0.1 to 100 uM after 72 hrs by MTT assay

Row | SMILES | Activity [1] | Activity [2] | Activity [3] | Activity [4] | Activity [5] | Activity [6]
1 | Cc1nc2ccccc2c2ccc(NC(=O)NCCNC(=O)Nc3ccc4c(c3)c(C)nc3ccccc34)cc12 | inactive |  |  |  |  | 
2 | Cc1nc2ccccc2c2ccc(NC(=O)NCCCCCCCCCNC(=O)Nc3ccc4c(c3)c(C)nc3ccccc34)cc12 | inactive | inactive | inactive | inactive | inactive | inactive
3 | Cc1nc2ccccc2c2ccc(NC(=O)NCCCCCCNC(=O)Nc3ccc4c(c3)c(C)nc3ccccc34)cc12 | inactive |  |  |  |  | 

Source: ChEMBL document CHEMBL1208667, “Permanent positive charge strongly influences DNA/RNA binding and antiproliferative activity of urea-phenanthridinium conjugates” (Eur J Med Chem, 2010)
